Assay results as given in patent US10654834B2 (Venenum Biodesign, LLC, priority 2016, dated 2020).
Counter-ions that a name gives are not always drawn.

Legend:
[1] = biological target: T1, human TGR5 receptor (Homo sapiens, UniProt Q8TDU6); assay: Human TGR5 cAMP production assay (hTGR5-CHO cells, DiscoveRx cAMP XS+ kit); format: cell-based; details: luminescent cAMP assay, read-out: Human TGR5 Lum. cAMP Activity (EC50)
T1 construct: host or cells: CHO-K1 (hTGR5-CHO)
T1 sequence (Q8TDU6 1-330): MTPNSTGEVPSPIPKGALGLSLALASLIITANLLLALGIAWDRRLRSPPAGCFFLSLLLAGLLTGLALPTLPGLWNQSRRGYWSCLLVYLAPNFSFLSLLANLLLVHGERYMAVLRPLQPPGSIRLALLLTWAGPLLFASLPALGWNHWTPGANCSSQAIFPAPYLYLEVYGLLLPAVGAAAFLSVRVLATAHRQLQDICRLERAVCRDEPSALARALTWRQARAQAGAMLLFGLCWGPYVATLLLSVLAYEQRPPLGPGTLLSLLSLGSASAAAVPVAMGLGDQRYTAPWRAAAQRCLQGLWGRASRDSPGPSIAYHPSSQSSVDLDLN
Procedure, shortened: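 EC50 values come from luminescent enzyme-complementation cAMP detection, read after overnight incubation. Beforehand, hTGR5-expressing CHO-K1 cells with IBMX and anti-cAMP antibody were exposed 1 h at room temperature to serially diluted (half-log) compounds.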

[2] = biological target: T2, mouse TGR5 receptor (Mus musculus, UniProt Q80SS6); assay: Mouse TGR5 luminescent cAMP production assay (HEK293-EBNA cells, DiscoveRx cAMP XS+ kit); format: cell-based; details: HEK293-EBNA cells overexpressing mouse TGR5, luminescent cAMP assay; read-out: Mouse TGR5 Lum. cAMP Activity (EC50)
T2 construct: host or cells: HEK293-EBNA (293 c18, ATCC CRL10852)
T2 sequence (Q80SS6 1-329): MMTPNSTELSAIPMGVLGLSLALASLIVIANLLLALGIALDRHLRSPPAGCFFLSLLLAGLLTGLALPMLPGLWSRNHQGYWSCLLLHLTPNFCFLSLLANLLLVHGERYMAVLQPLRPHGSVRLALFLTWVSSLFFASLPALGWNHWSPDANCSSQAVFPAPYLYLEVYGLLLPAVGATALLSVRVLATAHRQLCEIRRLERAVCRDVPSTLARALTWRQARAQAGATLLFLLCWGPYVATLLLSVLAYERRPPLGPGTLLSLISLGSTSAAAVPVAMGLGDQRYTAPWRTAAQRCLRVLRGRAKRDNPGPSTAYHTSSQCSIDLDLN
Procedure, shortened: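 HEK293-EBNA cells stably expressing mouse TGR5, resuspended in serum-free DMEM with 500 μM IBMX, were premixed 20 min with cAMP antibody, then exposed to half-log compound dilutions for 1 h at room temperature. cAMP was read by luminescent enzyme-fragment complementation (cAMP XS+) after overnight incubation; EC50 derived.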

Compound	EC50 [1] [µM]	EC50 [2] [µM]
CNc1cc(N2CCC[C@@H](C(=O)NCCc3ccc(C(F)(F)F)cc3)C2)nc(C(F)(F)F)n1 [Compound 321, (R)-1-(6-(methylamino)-2-(trifluoromethyl)pyrimidin-4-yl)-N-(4-(trifluoromethyl)phenethyl)piperidine-3-carboxamide]	0.1 to 0.999	0.1 to 0.999
CC(C)(C)OC(=O)NCC1CCN(c2cc(N3CCC[C@H]3C(=O)NCCc3ccc(C#N)cc3)nc(C(F)(F)F)n2)CC1 [Compound 17]	0.1 to 0.999	0.1 to 0.999
O=C(NCCc1ccc(C(F)(F)F)cc1)[C@@H]1CCCN1c1cc(N2CCC(CCO)CC2)nc(C(F)(F)F)n1 [Compound 7]	< 0.1	< 0.1
O=C(NCCc1ccc(C(F)(F)F)cc1)[C@@H]1CCCN(c2cc(OC3CCOCC3)nc(C(F)(F)F)n2)C1 [Compound 335, (R)-1-(6-((tetrahydro-2H-pyran-4-yl)oxy)-2-(trifluoromethyl)pyrimidin-4-yl)-N-(4-(trifluoromethyl)-phenethyl)piperidine-3-carboxamide]	0.1 to 0.999	0.1 to 0.999
CC(C)(C)OC(=O)NCCC1CCN(c2cc(N3CCC[C@H]3C(=O)NCCc3ccc(C#N)cc3)nc(C(F)(F)F)n2)CC1 [Compound 18]	0.1 to 0.999	0.1 to 0.999
CC(=O)NCCNc1cc(N2CCC[C@@H](C(=O)NCCc3ccc(C(F)(F)F)cc3)C2)nc(C(F)(F)F)n1 [Compound 324, (R)-1-(6-((2-acetamidoethyl)amino)-2-(trifluoromethyl)pyrimidin-4-yl)-N-(4-(trifluoromethyl)phenethyl)piperidine-3-carboxamide]	1 to 30	0.1 to 0.999
N#Cc1ccc(CCNC(=O)[C@@H]2CCCN(c3cc(N4CCN(Cc5cccc6c5OCO6)CC4)nc(C(F)(F)F)n3)C2)cc1 [Compound 319, (R)-1-(6-(4-(benzo[d][1,3]dioxol-4-ylmethyl)piperazin-1-yl)-2-(trifluoromethyl)pyrimidin-4-yl)-N-(4-cyanophenethyl)piperidine-3-carboxamide]	0.1 to 0.999	0.1 to 0.999
CN(CC1CCN(c2cc(N3CCC[C@H]3C(=O)NCCc3ccc(C#N)cc3)nc(C(F)(F)F)n2)CC1)C(=O)OC(C)(C)C [Compound 20]	1 to 30	1 to 30
CN(C)c1cc(N2CCC[C@@H](C(=O)NCCc3ccc(C(F)(F)F)cc3)C2)nc(C(F)(F)F)n1 [Compound 322, (R)-1-(6-(dimethylamino)-2-(trifluoromethyl)pyrimidin-4-yl)-N-(4-(trifluoromethyl)phenethyl)piperidine-3-carboxamide]	0.1 to 0.999	1 to 30
N#Cc1ccc(CCNC(=O)[C@@H]2CCCN(c3cc(OC4CCOCC4)nc(C(F)(F)F)n3)C2)cc1 [Compound 334]	< 0.1	< 0.1
CC(=O)N(C)CC1CCN(c2cc(N3CCC[C@H]3C(=O)NCCc3ccc(C#N)cc3)nc(C(F)(F)F)n2)CC1 [Compound 54, (S)-N-(4-cyanophenethyl)-1-(6-(4-((N-methylacetamido)methyl)piperidin-1-yl)-2-(trifluoromethyl)pyrimidin-4-yl)pyrrolidine-2-carboxamide]	0.1 to 0.999	< 0.1
O=C(NCCc1ccc(C(F)(F)F)cc1)[C@@H]1CCCN(c2cc(NCCN3CCOCC3)nc(C(F)(F)F)n2)C1 [Compound 325, (R)-1-(6-((2-morpholinoethyl)amino)-2-(trifluoromethyl)pyrimidin-4-yl)-N-(4-(trifluoromethyl)phenethyl)-piperidine-3-carboxamide]	0.1 to 0.999	< 0.1

The next lines start with the values.

EC50 [1] [µM]	EC50 [2] [µM]	Compound
0.1 to 0.999	0.1 to 0.999	N#Cc1ccc(CCNC(=O)[C@@H]2CCN2c2cc(-c3ccccn3)nc(C(F)(F)F)n2)cc1 [Compound 306, (S)-N-(4-cyanophenethyl)-1-(6-(pyridin-2-yl)-2-(trifluoromethyl)pyrimidin-4-yl)azetidine-2-carboxamide]
1 to 30	< 0.1	COc1cnccc1-c1cc(N2CCC[C@H]2C(=O)NCCc2ccc(C#N)cc2)nc(C(F)(F)F)n1 [Compound 159, (S)-N-(4-cyanophenethyl)-1-(6-(3-methoxypyridin-4-yl)-2-(trifluoromethyl)pyrimidin-4-yl)pyrrolidine-2-carboxamide]
0.1 to 0.999	0.1 to 0.999	CCOc1ccc(-c2cc(N3CCC[C@H]3C(=O)NCCc3ccc(C#N)cc3)nc(C(F)(F)F)n2)cc1 [Compound 151, (S)-N-(4-cyanophenethyl)-1-(6-(4-ethoxyphenyl)-2-(trifluoromethyl)pyrimidin-4-yl)pyrrolidine-2-carboxamide]
0.1 to 0.999	< 0.1	N#Cc1ccc(CCNC(=O)[C@@H]2CCCN2c2cc(NCc3ccncc3)nc(C(F)(F)F)n2)cc1 [Compound 13]
0.1 to 0.999	0.1 to 0.999	N#Cc1ccc(CCNC(=O)[C@@H]2CCCN2c2cc(-c3ccncc3)nc(C(F)(F)F)n2)cc1 [Compound 141, (S)-N-(4-cyanophenethyl)-1-(6-(pyridin-4-yl)-2-(trifluoromethyl)pyrimidin-4-yl)pyrrolidine-2-carboxamide]
0.1 to 0.999	< 0.1	N#Cc1ccc(CCNC(=O)C2CCN2c2cc(OC3CCOCC3)nc(C(F)(F)F)n2)cc1 (centres unmarked) [Compound 244, N-(4-cyanophenethyl)-1-(6-((tetra-hydro-2H-pyran-4-yl)oxy)-2-(trifluoromethyl)pyrimidin-4-yl)azetidine-2-carboxamide]
1 to 30	0.1 to 0.999	N#Cc1ccc(CCNC(=O)[C@@H]2CCCN2c2cc(OC3CCNCC3)nc(C(F)(F)F)n2)cc1 [Compound 51, (S)-N-(4-cyanophenethyl)-1-(6-(piperidin-4-yloxy)-2-(trifluoromethyl)pyrimidin-4-yl)pyrrolidine-2-carboxamide]
0.1 to 0.999	< 0.1	N#Cc1ccc(CCNC(=O)C2CCN2c2cc(-c3ccncc3)nc(C(F)(F)F)n2)cc1 (centres unmarked) [Compound 307, N-(4-cyanophenethyl)-1-(6-(pyridin-4-yl)-2-(trifluoromethyl)pyrimidin-4-yl)azetidine-2-carboxamide]
0.1 to 0.999	< 0.1	N#Cc1ccc(CCNC(=O)[C@@H]2CCN2c2cc(OC3CCOCC3)nc(C(F)(F)F)n2)cc1 [Compound 242, (S)—N-(4-cyanophenethyl)-1-(6-((tetrahydro-2H-pyran-4-yl)oxy)-2-(trifluoromethyl)pyrimidin-4-yl)azetidine-2-carboxamide]
0.1 to 0.999	< 0.1	N#Cc1ccc(CCNC(=O)[C@@H]2CCCN2c2cc(-c3ccsc3)nc(C(F)(F)F)n2)cc1 [Compound 158, (S)-N-(4-cyanophenethyl)-1-(6-(thiophen-3-yl)-2-(trifluoromethyl)pyrimidin-4-yl)pyrrolidine-2-carboxamide]
0.1 to 0.999	0.1 to 0.999	N#Cc1ccc(CCNC(=O)[C@@H]2CCN2c2cc(N3CCC(CN)CC3)nc(C(F)(F)F)n2)cc1 [Compound 245, (S)-(1-(6-(4-aminomethylpiperidin-1-yl)-2-(trifluoromethyl)pyrimidin-4-yl)-N-(4-cyanophenethyl)azetidine-2-carboxamide hydrochloride]
0.1 to 0.999	0.1 to 0.999	CNCC1CCN(c2cc(N3CCC[C@H]3C(=O)NCCc3ccc(C#N)cc3)nc(C(F)(F)F)n2)CC1 [Compound 49]
0.1 to 0.999	0.1 to 0.999	Cc1ccc(-c2cc(N3CCC[C@H]3C(=O)NCCc3ccc(C#N)cc3)nc(C(F)(F)F)n2)cc1 [Compound 143, (S)-N-(4-cyanophenethyl)-1-(6-(p-tolyl)-2-(trifluoromethyl)pyrimidin-4-yl)pyrrolidine-2-carboxamide]
1 to 30	< 0.1	COc1cc(-c2cc(N3CCC[C@H]3C(=O)NCCc3ccc(C#N)cc3)nc(C(F)(F)F)n2)c(Cl)cn1 [Compound 161, (S)-1-(6-(5-chloro-2-methoxy-pyridin-4-yl)-2-(trifluoromethyl)pyrimidin-4-yl)-N-(4-cyanophenethyl)pyrrolidine-2-carboxamide]
< 0.1	0.1 to 0.999	COCC1CCN(c2cc(N3CC[C@H]3C(=O)NCCc3ccc(C#N)cc3)nc(C(F)(F)F)n2)CC1 [Compound 222, (S)-N-(4-cyanophenethyl)-1-(6-(4-(methoxymethyl)piperidin-1-yl)-2-(trifluoromethyl)pyrimidin-4-yl)azetidine-2-carboxamide]
0.1 to 0.999	0.1 to 0.999	N#Cc1ccc(CCNC(=O)[C@@H]2CCCN2c2cc(Oc3ccccc3)nc(C(F)(F)F)n2)cc1 [Compound 43, (S)-N-(4-cyanophenethyl)-1-(6-phenoxy-2-(trifluoromethyl)pyrimidin-4-yl)pyrrolidine-2-carboxamide]
